From patent publication US7625887B2, “Receptor agonists” (Takeda Pharmaceutical Company Limited, priority 2003, dated 2009)

What was measured:
[1] = target: T1, human TGR5 (Homo sapiens, UniProt Q8TDU6); experiment: cAMP production increasing activity in human TGR5 expressing CHO cells; assay type: cell-based; conditions: test compound 1 μM, 30 min; 1 μM lithocholic acid = 100%, no addition = 0%; average of 3 groups
T1 construct: expressed in transfected cells; host or cells: CHO cells
T1 sequence (Q8TDU6 1-330): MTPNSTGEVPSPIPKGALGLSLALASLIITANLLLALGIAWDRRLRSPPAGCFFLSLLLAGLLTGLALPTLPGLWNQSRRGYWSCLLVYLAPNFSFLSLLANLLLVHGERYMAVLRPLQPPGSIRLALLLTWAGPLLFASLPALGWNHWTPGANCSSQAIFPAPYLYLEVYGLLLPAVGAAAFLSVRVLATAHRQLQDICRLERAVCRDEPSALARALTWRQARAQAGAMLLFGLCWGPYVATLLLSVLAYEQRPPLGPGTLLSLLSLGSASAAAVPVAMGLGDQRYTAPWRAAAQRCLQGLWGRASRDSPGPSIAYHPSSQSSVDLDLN
Method: As the assay buffer, Hank's balanced salt solution (HBSS, Invitrogen) supplemented with 0.1% bovine serum albumin (BSA, Sigma) and 0.5 mM 3-isobutyl-1-methylxanthine (IBMX, Sigma) was used. A test compound sample (1 μM) diluted with the assay buffer was added to the cells. The cells were incubated at 37° C. for 30 min. and the supernatant was suctioned. The intracellular cAMP amount increased by the stimulation of the test compound was quantitatively determined using a HitHunter™ EFC Cyclic AMP Chemiluminescence Assay Kit (ABI) kit.

[2] = test system: mock CHO cells free of human TGR5 expression; experiment: cAMP production increasing activity in mock CHO cells free of human TGR5 expression; assay type: cell-based; conditions: test compounds 2 μM, average of 3 groups
Method: (§1) As the assay buffer, Hank's balanced salt solution (HBSS, Invitrogen) supplemented with 0.1% bovine serum albumin (BSA, Sigma) and 0.2 mM 3-isobutyl-1-methylxanthine (IBMX, Sigma) was used. The cells were washed twice with the assay buffer and preincubated at 37° C. for 30 min. The cells were washed twice, and test compound samples (10 μM) diluted with the assay buffer to various concentrations were added. The cells were incubated at 37° C. for 20 min. The culture supernatant was discarded, and the cAMP production amount was measured using a cAMP Screen System (ABI).

[3] = target: T2, rabbit TGR5 (Oryctolagus cuniculus, UniProt Q862A8); experiment: cAMP production increasing activity in rabbit TGR5 expressing CHO cells; assay type: cell-based; conditions: Experimental Example 6; 2 μM; 10 μM lithocholic acid = 100%; average of 3 groups
T2 construct: expressed in transfected cells; host or cells: CHO cells
T2 sequence (Q862A8 1-330): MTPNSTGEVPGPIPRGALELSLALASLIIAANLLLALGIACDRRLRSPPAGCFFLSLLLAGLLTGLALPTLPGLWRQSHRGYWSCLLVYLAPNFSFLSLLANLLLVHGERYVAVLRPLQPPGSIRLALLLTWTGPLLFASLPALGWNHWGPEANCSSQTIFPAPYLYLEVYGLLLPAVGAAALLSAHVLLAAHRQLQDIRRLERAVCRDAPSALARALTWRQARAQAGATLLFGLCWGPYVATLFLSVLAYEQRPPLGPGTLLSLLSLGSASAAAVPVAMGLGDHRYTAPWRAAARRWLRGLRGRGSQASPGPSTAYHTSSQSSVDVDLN
Method: as §1, with “twice” for “twice,”, “(2” for “(10”, “buffer” for “buffer to various concentrations”

[4] = test system: NCI-H716 cells; experiment: intracellular cAMP production increasing action in NCI-H716 cells; assay type: cell-based, human; conditions: 10 μM, 2 hrs; production amount in TLCA (50 μM) was 100%; Base 11
Method: NCI-H716 (ATCC) was suspended in a medium (Dulbecco's Modified Eagle Medium (DMEM, Invitrogen) supplemented with 10% fetal bovine serum (Invitrogen), 100 U/ml penicillin and 100 μg/ml streptomycin), seeded in a 96 well plate, cultured for 2 days and used for cAMP production assay. As a cAMP assay buffer, modified Krebs-Ringer bicarbonate buffer (KRBH, 116 mM NaCl, 4.7 mM KCl, 1.2 mM KH2PO4, 1.2 MM MgSO4, 2.5 mM CaCl2, 25 mM NaHCO3, 24 mM HEPES pH 7.3), supplemented with glucose 5.5 mM, bovine serum albumin (BSA) 0.1%, and 3-isobutyl-1-methylxanthine (IBMX, Sigma) 1 mM, was used. The cells were washed once with cAMP assay buffer. Bile acids (50 μM) diluted with cAMP assay buffer or the compounds of the present invention (10 μM) were added thereto and the cells were incubated for 2 hrs. The culture supernatant was discarded, and the cAMP production amount was measured by cAMP Screen System (ABI). In the Table, Base means non-addition of a test compound.

[5] = target: T3, rat TGR5 (Rattus norvegicus, UniProt Q80T02); experiment: cAMP production increasing activity in rat type TGR5 expressing CHO cells; assay type: cell-based; conditions: 0.5 h, read-out: cAMP producing activity (control %)
T3 construct: expressed in transfected cells; host or cells: CHO cells
T3 sequence (Q80T02 1-329): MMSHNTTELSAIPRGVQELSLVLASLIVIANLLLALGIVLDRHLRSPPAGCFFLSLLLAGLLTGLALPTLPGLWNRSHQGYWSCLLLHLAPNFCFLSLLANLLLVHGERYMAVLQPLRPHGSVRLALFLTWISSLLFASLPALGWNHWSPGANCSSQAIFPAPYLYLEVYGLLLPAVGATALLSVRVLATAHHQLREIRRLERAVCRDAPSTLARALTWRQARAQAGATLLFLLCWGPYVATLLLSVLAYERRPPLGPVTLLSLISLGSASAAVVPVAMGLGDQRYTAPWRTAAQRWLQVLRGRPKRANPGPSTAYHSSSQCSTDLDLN
Method: (§2) After culture, the cells were detached with 0.5 mM EDTA/PBS, washed with PBS, and suspended in Buffer 1 (HBSS+0.1% BSA, 25 mM HEPES pH 7.3, 0.5 mM IBMX) at a density of 1×10^7 cells/ml. The obtained cell suspension (460 μl), anti-cAMP acceptor beads (23 μl) of AlphaScreen cAMP assay kit (Perkin Elmer) and Buffer 1 (667 μl) were mixed and dispensed to a white 96 well plate (Costar) by 10 μl. Then, a test compound diluted with Buffer 1 was added to each well by 10 μl. At this time, one row of the plate was free of the cell suspension but added with anti-cAMP acceptor beads (9 μl) and Buffer 1 (441 μl) alone, and serial dilutions of cAMP were added instead of the test compound and used as the standard. A mixture of the cell suspension and the test compound contained in the plate was allowed to react at room temperature for 30 min. […] The plate was shaken at room temperature for 2.5 hrs and fluorescence intensity was measured by Fusion α (Parkin Elmer), and the cAMP concentration of each well was calculated using the cAMP standard on each plate.

[6] = test system: guinea pig TGR5; experiment: cAMP production increasing activity in guinea pig TGR5 expressing CHO cells; assay type: cell-based; conditions: test compound 2 μM; 10 μM lithocholic acid = 100%; average of 3 groups
Method: as §2, with “The guinea pig type TGR5 expressing CHO cells were seeded in one 150 cm^2 flask at 1×10^7 cells, and cultured overnight at 37° C., 5% CO2. After” for “After”

[7] = test system: rat intestine primary culture cells; experiment: GLP-1 secretion from rat intestine primary culture cells; assay type: cell-based; conditions: test compound 20 μM, 150 min
Method: Terminal ileum and colon mucous membrane were removed from rat (Wistar, male, Charles River Japan, Inc.) and subjected to an enzyme treatment to give a cell dispersion according to the following method.
The enzyme solution used was obtained by dissolving 5 mg/ml Collagenase (Sigma), 5 mg/ml Hyaluronidase (Sigma) and 0.5 mg/ml DNaseI (Sigma) in a medium. The medium used was Dulbecco's Modified Eagle Medium (DMEM, Invitrogen) supplemented with 4.5 g/l Glucose, 5% FBS (Invitrogen), 100 units/ml Penicillin (Invitrogen), 100 μg/ml Streptomycin (Invitrogen), 50 μg/ml Gentamicin (Invitrogen) and 20 mM Hepes (pH 7.3). After digestion by the enzyme solution at 37° C., the tissue sections were prepared into dispersed cells by passing through a pipette 7 times and the cells were collected. The collected cells were washed with a buffer (incubation buffer) obtained by adding 5.5 mM Glucose and 0.1% BSA to a modified Krebs-Ringer bicarbonate buffer (KRBH, 116 mM NaCl, 4.7 mM KCl, 1.2 mM KH2PO4, 1.2 mM MgSO4, 2.5 mM CaCl2, 25 mM NaHCO3, 24 mM HEPES, pH 7.3), and preincubated at 37° C. under 5% CO2 for 30 min. 0.1 μM Phorbol ester (Wako), 1% DPPIV inhibitor (Linco) and a test compound were added to the above-mentioned incubation buffer, and the obtained buffer was added to the cells after the aforementioned preincubation and incubated for 150 min. The culture supernatant was collected and cryopreserved. The concentration of GLP-1 released in the culture supernatant was measured using an ELISA kit (Linco).

[8] = target: T1, human TGR5; experiment: cAMP production increasing activity in human TGR5 expressing CHO cells; assay type: cell-based; conditions: read-out: EC50 value (concentration necessary to make the cAMP production amount 50%)
[9] = Experimental Example 5, Base 0.19

SMILES | cAMP production increasing activity (control %) [1] | cAMP production increasing activity (control %) [3] | cAMP production increasing activity [2, 9] | cAMP production increasing activity (%) [4] | activation at 2 µM [5] | cAMP producing activity (control %) [6] | GLP-1 (% relative to non-addition) [7] | EC50 [8] | cAMP production increasing activity ([2]; Experimental Example 4, Base 0.28)
CC(c1cc(C(F)(F)F)cc(C(F)(F)F)c1)N1CCOc2nccc(-c3ccccc3)c2C1.Cl (stereo not drawn) [Example 33C, 4-{1-[3,5-bis(trifluoromethyl)phenyl]ethyl}-6-phenyl-2,3,4,5-tetrahydropyrido[3,2-f][1,4]oxazepine hydrochloride] |  |  |  |  | 149% | 111 control % | 214 % relative to non-addition | < 100 nM | 
CC(C)(C)CN1C(=O)C(CC(=O)NCc2ccccc2F)N(C(=O)c2ccncc2)Cc2ccccc21 (stereo not drawn) [Example 1B, N-(2-fluorobenzyl)-2-(4-isonicotinoyl-1-neopentyl-2-oxo-2,3,4,5-tetrahydro-1H-1,4-benzodiazepin-3-yl)acetamide] | 113 control % | 71.2 control % |  |  |  |  |  |  | 0.23 pmol
CC(=O)NCc1cccc(C2OC(CC(=O)NCc3ccccc3F)C(=O)N(CC(C)(C)C)c3ccc(Cl)cc32)c1 (single isomer, unassigned; (+)) [Reference Example 33, (+)-2-[3,5-trans-5-[3-(acetylaminomethyl)phenyl]-7-chloro-1-neopentyl-2-oxo-1,2,3,5-tetrahydro-4,1-benzoxazepin-3-yl]-N-(2-fluorobenzyl)acetamide] |  |  |  |  | 92% |  | 201 % relative to non-addition | < 100 nM | 
O=S(=O)(c1cc(C(F)(F)F)cc(C(F)(F)F)c1)N1CCCOc2nccc(-c3ccccc3)c2C1 [Example 23C, 5-{[3,5-bis(trifluoromethyl)phenyl]sulfonyl}-7-phenyl-3,4,5,6-tetrahydro-2H-pyrido[2,3-b][1,5]oxazocine] |  |  |  |  | 148% | 119 control % | 133 % relative to non-addition |  | 
O=C(c1cc(C(F)(F)F)cc(C(F)(F)F)c1)N1CCOc2nccc(-c3ccccc3)c2C1 [Example 14C, 4-[3,5-bis(trifluoromethyl)benzoyl]-6-phenyl-2,3,4,5-tetrahydropyrido[3,2-f][1,4]oxazepine] | 100 control % | 116 control % | 0.17 pmol |  |  |  |  |  | 

Continued, in another order:

cAMP production increasing activity (control %) [1] | cAMP production increasing activity (control %) [3] | SMILES | cAMP production increasing activity [2, 9] | cAMP production increasing activity (%) [4] | activation at 2 µM [5] | cAMP producing activity (control %) [6] | GLP-1 (% relative to non-addition) [7] | EC50 [8] | cAMP production increasing activity ([2]; Experimental Example 4, Base 0.28)
96 control % | 99 control % | FC(F)(F)c1cc(CN2CCOc3nccc(-c4ccccc4)c3C2)cc(C(F)(F)F)c1 [Example 9C, 4-[3,5-bis(trifluoromethyl)benzyl]-6-phenyl-2,3,4,5-tetrahydropyrido[3,2-f][1,4]oxazepine] | 0.2 pmol | 109% | 112% |  |  |  | 
112 control % | 106 control % | FC(F)(F)c1cc(CN2CCCOc3nccc(-c4ccccc4)c3C2)cc(C(F)(F)F)c1.FC(F)(F)c1cc(CN2CCCOc3nccc(-c4ccccc4)c3C2)cc(C(F)(F)F)c1.O=S(=O)(O)O [Example 18C, 5-[3,5-bis(trifluoromethyl)benzyl]-7-phenyl-3,4,5,6-tetrahydro-2H-pyrido[2,3-b][1,5]oxazocine ½sulfate] | 0.17 pmol |  |  |  |  |  | 
